From ChEMBL document CHEMBL1129063, “Design, synthesis, and biochemical evaluation of N-substituted maleimides as inhibitors of prostaglandin endoperoxide synthases” (J Med Chem, 1996)
pIC50: −log10 of the molar value.

Molecular target: Cyclooxygenase (Homo sapiens, UniProt P35354+P23219)
Assay: Inhibitory activity against Prostaglandin G/H synthase

| pIC50 | IC50 | SMILES |
| --- | --- | --- |
| < 3.70 |  | CC(=O)Oc1cc(N2C(=O)C=CC2=O)ccc1C(=O)O |
|  | 570 µM | O=C(O)CCCCCCN1C(=O)C=CC1=O |
|  | 250 µM | O=C(O)c1ccccc1OCCN1C(=O)C=CC1=O |
|  | 37 µM | O=C(O)CCCCCCCCCN1C(=O)C=CC1=O |
|  | 14 µM | CCCCCCCCCCN1C(=O)C=CC1=O |
|  | 50 µM | Cc1ccccc1CN1C(=O)C=CC1=O |
|  | 140 µM | O=C(O)CCCCCCCCCCCN1C(=O)C=CC1=O |
|  | 27 µM | O=C(O)c1ccc(CN2C(=O)C=CC2=O)cc1 |
|  | 12 µM | CCCCCCCCCN1C(=O)C=CC1=O |
|  | 26 µM | O=C(O)CCCCCCCCN1C(=O)C=CC1=O |
|  | > 800 µM | O=C(O)CCCCCN1C(=O)C=CC1=O |
|  | 40 µM | O=C(O)CCCCCCCCCCN1C(=O)C=CC1=O |
|  | 29 µM | CC(=O)Oc1ccc(N2C(=O)C=CC2=O)cc1C(=O)O |
